Source: ChEMBL document CHEMBL1201862, “PubChem BioAssay data set” (2004)
Active and inactive are the calls of the source.

Key:
[1] = target: T1, Delta-type opioid receptor (Homo sapiens, UniProt P41143); assay: SAR Analysis of Agonists of the DOR Receptor using an Image-Based Assay - Set 3. [Related pubchem assays (depositor defined):AID1777, AID1786]; assay type: functional
[2] = target: T2, Kappa-type opioid receptor (Homo sapiens, UniProt P41145); assay: SAR analysis of small molecule agonists of the kappa opioid receptor via a luminescent beta-arrestin assay - Set 3. [Related pubchem assays (depositor defined):AID1777, AID1785, AID1786, AID1966, AID2133, AID2136, AID2284, AID2500]; assay type: functional
T2 sequence (P41145 whole entry): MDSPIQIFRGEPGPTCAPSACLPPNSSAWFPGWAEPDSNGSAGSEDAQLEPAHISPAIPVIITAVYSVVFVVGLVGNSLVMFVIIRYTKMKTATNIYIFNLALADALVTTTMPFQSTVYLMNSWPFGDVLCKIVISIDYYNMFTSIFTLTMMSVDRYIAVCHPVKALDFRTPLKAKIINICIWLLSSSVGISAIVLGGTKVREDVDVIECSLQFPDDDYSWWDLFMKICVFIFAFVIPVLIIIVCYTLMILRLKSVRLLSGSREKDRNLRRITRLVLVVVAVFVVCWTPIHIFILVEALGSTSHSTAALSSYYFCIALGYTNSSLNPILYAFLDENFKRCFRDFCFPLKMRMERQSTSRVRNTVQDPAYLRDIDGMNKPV

[3] = target: T2, Kappa-type opioid receptor; assay: KOR agonist analogs, arrestin-GFP redistribution, SAR follow-up, imaging, image-based, set 3 (AID 488833); assay type: functional
[4] = target: T3, Mu-type opioid receptor (Homo sapiens, UniProt P35372); assay: SAR Analysis of Agonists of the MOR Receptor using an Image-Based Assay - Set 3. [Related pubchem assays (depositor defined):AID1777, AID1785, AID1786, AID1966, AID2133, AID2136, AID2284, AID2285, AID2352]; assay type: functional
T3 sequence (P35372 whole entry): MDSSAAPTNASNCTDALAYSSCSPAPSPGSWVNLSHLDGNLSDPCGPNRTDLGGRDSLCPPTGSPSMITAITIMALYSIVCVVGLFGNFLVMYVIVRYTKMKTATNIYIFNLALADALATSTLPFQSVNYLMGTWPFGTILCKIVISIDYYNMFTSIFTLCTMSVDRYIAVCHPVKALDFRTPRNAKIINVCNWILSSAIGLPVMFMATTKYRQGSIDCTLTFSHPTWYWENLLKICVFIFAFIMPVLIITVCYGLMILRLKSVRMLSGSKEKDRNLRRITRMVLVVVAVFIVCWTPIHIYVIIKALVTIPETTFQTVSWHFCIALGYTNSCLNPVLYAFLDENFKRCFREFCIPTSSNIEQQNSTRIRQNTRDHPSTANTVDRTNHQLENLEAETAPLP

[5] = target: T4, Alkaline phosphatase, tissue-nonspecific isozyme (Homo sapiens, UniProt P05186); assay: TNAP enzyme activators, dose response, selectivity assay for mouse IAP activator project, biochemical, TNAP isozyme, mouse IAP uHTS hits (AID 488880); assay type: functional
T4 sequence (P05186 whole entry): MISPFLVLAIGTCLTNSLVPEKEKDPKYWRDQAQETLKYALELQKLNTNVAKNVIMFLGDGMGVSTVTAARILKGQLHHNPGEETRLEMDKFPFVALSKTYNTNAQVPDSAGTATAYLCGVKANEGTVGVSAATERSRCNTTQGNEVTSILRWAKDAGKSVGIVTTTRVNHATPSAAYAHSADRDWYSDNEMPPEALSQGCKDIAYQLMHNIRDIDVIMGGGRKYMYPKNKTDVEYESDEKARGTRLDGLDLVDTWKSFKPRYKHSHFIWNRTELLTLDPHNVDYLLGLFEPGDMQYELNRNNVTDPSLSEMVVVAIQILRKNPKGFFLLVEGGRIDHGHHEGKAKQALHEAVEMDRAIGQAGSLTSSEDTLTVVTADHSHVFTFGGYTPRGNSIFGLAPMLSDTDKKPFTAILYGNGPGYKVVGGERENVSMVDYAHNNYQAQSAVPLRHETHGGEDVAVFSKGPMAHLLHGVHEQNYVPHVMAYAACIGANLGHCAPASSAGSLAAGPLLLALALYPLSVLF

[6] = target: Intestinal-type alkaline phosphatase (Homo sapiens, UniProt P09923); assay: activation of human intestinal alkaline phosphatase – biochemical, dose response (AID 488873); assay type: functional
Sequence of Intestinal-type alkaline phosphatase (Homo sapiens, UniProt P09923) (P09923 whole entry): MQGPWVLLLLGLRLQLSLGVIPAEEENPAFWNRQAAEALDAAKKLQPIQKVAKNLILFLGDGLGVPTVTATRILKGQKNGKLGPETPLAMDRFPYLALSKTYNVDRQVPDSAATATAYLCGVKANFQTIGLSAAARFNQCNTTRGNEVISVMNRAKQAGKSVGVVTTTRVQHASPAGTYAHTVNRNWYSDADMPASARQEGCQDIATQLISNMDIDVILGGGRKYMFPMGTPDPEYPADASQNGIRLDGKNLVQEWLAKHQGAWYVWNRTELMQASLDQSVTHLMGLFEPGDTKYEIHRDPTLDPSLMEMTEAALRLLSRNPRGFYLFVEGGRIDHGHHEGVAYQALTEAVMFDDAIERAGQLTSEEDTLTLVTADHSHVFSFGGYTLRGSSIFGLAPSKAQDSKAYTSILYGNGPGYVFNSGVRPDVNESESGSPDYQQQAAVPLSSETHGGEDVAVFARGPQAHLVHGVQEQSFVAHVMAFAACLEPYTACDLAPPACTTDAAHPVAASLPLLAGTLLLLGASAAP

[7] = target: ORF 73 (Human herpesvirus 8, UniProt O40947); assay: inhibitors of C-LANA binding to LBS DNA, dose response, biochemical, fluorescence polarization, cherry-picked samples (AID 504725); parameters: species or system Human gammaherpesvirus 8;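 further: fluorescence polarization of a labeled DNA duplex reporting LANA DNA binding; potency is for inhibitors that block LANA binding to the DNA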
Sequence of ORF 73 (O40947 whole entry): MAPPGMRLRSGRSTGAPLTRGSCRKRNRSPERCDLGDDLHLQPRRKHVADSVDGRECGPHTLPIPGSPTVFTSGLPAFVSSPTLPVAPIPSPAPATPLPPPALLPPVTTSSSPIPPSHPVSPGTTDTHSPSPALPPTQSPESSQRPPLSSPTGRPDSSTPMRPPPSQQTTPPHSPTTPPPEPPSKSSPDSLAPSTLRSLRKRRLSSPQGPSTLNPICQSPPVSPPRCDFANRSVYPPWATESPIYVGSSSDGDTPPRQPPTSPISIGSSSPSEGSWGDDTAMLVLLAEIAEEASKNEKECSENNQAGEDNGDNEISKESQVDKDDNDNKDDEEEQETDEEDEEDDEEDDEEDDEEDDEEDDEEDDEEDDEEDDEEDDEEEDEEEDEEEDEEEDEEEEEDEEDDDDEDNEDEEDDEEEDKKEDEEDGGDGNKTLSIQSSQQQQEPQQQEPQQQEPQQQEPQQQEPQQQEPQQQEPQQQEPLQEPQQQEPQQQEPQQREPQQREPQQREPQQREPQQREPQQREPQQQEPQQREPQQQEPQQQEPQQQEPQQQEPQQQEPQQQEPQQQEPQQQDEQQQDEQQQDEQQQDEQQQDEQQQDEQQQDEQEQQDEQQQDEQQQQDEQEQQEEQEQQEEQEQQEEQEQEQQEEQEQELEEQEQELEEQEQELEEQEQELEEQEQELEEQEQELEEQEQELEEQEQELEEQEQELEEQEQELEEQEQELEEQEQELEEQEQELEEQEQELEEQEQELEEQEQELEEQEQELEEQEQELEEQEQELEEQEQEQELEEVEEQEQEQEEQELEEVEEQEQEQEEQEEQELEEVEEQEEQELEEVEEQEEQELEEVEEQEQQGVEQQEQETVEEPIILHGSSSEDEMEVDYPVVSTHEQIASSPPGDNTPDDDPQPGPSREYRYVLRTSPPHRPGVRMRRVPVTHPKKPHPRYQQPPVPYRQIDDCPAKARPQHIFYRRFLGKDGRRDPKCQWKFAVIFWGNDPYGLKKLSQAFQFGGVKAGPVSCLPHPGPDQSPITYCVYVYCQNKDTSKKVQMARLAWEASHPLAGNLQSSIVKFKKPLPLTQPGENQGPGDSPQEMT

[8] = target: Large T antigen (Simian virus 40, UniProt P03070); assay type: functional, Betapolyomavirus macacae;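 further: Confirmatory-stage PubChem screen for compounds that inhibit SV40 T antigen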
Sequence of Large T antigen (P03070 whole entry): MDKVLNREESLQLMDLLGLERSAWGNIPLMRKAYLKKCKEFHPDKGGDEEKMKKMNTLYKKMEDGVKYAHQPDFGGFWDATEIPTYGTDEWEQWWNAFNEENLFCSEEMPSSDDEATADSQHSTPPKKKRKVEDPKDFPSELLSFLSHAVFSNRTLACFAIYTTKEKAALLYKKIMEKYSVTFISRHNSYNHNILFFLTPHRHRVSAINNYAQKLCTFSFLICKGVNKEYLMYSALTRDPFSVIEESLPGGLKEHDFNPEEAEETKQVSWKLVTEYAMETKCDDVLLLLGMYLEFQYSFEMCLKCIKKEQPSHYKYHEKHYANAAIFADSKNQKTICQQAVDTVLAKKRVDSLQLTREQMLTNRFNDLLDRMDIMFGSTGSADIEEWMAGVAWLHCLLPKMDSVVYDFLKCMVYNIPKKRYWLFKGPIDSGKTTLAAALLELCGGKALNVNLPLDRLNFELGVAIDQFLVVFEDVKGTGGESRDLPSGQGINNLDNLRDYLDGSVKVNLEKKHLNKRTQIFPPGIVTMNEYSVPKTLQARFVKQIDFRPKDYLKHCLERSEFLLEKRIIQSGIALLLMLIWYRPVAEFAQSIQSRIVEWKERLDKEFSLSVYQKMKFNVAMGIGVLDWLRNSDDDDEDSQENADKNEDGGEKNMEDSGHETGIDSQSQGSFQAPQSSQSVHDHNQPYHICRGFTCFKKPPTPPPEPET

[9] = target: T5, Rac GTPase-activating protein 1 (Homo sapiens, UniProt Q9H0H5); assay: MgcRacGAP GTPase-activating activity inhibitors, confirmation, biochemical, ADP Hunter fluorescence, primary and confirmatory (AID 624330); assay type: functional
T5 sequence (Q9H0H5 whole entry): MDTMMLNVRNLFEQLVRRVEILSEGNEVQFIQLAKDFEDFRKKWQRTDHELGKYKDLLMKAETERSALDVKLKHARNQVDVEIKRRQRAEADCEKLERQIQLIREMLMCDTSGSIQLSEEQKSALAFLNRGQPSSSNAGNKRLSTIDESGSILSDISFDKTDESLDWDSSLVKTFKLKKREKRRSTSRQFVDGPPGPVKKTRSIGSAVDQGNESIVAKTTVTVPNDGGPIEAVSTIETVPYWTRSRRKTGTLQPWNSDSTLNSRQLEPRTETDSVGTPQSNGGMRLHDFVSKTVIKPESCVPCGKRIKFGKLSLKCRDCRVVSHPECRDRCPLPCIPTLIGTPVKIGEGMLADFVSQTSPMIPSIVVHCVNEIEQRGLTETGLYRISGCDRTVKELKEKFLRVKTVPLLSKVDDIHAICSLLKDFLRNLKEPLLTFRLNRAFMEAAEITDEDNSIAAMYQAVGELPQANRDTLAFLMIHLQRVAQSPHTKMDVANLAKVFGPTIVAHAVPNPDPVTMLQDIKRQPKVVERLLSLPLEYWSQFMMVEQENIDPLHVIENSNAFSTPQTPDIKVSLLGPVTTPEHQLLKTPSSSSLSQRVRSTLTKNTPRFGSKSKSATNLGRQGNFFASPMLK

[10] = target: Intestinal-type alkaline phosphatase (Mus musculus, UniProt P24822); assay: mouse intestinal alkaline phosphatase activators, dose response, biochemical, luminescence, uHTS hits (AID 488783); assay type: functional
Sequence of Intestinal-type alkaline phosphatase (Mus musculus, UniProt P24822) (P24822 whole entry): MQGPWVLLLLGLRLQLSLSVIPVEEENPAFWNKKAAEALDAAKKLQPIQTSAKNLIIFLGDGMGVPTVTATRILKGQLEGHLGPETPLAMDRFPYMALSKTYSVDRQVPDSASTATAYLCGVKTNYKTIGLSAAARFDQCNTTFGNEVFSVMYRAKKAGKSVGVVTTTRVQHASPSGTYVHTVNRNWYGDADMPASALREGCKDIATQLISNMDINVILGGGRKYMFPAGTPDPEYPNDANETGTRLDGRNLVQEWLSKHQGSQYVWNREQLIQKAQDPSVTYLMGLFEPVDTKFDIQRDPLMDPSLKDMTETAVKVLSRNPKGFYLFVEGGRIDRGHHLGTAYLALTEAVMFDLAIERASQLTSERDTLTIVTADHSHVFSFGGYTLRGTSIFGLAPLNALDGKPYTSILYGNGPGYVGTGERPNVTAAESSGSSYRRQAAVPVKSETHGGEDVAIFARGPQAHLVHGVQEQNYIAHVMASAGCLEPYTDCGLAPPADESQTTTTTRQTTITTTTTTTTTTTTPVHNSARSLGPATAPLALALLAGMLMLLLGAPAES

[11] = target: T6, Histone-lysine N-methyltransferase NSD2 (Homo sapiens, UniProt O96028); assay type: biochemical
T6 sequence (O96028 whole entry): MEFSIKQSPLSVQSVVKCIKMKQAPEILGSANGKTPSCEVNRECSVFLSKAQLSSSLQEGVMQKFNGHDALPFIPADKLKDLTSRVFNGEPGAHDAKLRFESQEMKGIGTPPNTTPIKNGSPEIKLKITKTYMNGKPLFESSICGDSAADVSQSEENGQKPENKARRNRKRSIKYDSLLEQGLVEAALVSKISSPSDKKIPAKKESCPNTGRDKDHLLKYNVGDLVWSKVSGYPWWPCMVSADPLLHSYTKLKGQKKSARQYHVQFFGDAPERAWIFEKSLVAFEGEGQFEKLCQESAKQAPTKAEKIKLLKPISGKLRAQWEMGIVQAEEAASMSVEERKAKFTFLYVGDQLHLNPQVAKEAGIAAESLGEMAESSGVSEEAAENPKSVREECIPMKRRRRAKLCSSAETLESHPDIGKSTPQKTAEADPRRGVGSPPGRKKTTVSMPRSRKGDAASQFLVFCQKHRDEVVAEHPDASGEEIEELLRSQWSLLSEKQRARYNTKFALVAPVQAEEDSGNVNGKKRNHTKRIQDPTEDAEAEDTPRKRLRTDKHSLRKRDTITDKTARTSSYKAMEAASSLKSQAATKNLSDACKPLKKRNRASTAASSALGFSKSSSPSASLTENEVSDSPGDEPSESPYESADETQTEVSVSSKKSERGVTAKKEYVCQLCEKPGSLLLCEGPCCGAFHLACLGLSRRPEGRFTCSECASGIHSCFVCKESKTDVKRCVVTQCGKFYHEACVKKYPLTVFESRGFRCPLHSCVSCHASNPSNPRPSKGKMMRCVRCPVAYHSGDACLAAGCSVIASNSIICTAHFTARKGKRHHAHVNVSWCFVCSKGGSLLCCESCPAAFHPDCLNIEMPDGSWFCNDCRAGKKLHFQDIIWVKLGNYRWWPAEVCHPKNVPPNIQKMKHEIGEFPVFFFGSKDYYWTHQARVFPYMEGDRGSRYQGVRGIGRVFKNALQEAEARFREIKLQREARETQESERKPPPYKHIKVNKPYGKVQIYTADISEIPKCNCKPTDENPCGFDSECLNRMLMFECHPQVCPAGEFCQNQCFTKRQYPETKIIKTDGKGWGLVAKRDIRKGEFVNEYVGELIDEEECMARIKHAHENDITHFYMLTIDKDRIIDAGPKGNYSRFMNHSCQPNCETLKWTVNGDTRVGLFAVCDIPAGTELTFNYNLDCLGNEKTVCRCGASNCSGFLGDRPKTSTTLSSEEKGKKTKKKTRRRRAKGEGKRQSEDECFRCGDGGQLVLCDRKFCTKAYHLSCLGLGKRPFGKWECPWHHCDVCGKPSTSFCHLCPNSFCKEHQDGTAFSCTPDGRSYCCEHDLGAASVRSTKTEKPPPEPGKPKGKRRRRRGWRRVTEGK

[12] = target: T1, Delta-type opioid receptor; assay: DOR antagonists, SAR follow-up, image-based (AID 2357); assay type: functional
[13] = target: T1, Delta-type opioid receptor; assay: DOR agonists, SAR follow-up, image-based (AID 2370); assay type: functional
[14] = target: T2, Kappa-type opioid receptor; assay: kappa opioid receptor blockers, cell-based, luminescence, beta-arrestin, SAR follow-up (AID 2285); assay type: functional
[15] = target: T3, Mu-type opioid receptor; assay: MOR antagonists, SAR follow-up, image-based (AID 2420); assay type: functional;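 further: compounds added before stimulation of receptor with agonist DAMGO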
[16] = target: T2, Kappa-type opioid receptor; assay: KOR antagonists by imaging, SAR follow-up, image-based (AID 2348); assay type: functional
[17] = target: T2, Kappa-type opioid receptor; assay: KOR agonist analogs, imaging readout, SAR follow-up, image-based (AID 2359); assay type: functional
[18] = target: T3, Mu-type opioid receptor; assay: MOR agonists by imaging, SAR follow-up, image-based (AID 2352); assay type: functional

T1 sequence (P41143 whole entry): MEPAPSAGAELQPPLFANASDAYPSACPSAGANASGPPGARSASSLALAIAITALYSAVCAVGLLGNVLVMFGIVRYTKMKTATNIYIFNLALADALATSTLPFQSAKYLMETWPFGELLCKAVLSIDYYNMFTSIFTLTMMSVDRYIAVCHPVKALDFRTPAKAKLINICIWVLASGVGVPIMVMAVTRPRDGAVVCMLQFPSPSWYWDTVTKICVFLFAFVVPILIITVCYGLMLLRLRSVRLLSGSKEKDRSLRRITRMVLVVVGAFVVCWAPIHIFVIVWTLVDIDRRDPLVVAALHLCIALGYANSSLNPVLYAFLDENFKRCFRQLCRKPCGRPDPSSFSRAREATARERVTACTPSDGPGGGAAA

COc1cccc(CSc2nnc(-c3ccccn3)n2Cc2ccco2)c1
EC50 [1]: > 64 µM (inactive) | EC50 [2]: 15.3 µM (inactive) | EC50 [3]: > 32 µM (inactive) | EC50 [4]: > 32 µM (inactive)

N=C1/C(=C/c2ccc(O)c(O)c2)C(=O)N=C2SC(CC(=O)N3CCCC3)=NN12
EC50 [5]: 9.2 µM (active) | EC50 [6]: 9.7 µM (active) | AC50 [7]: 161 µM (active) | IC50 [8]: 7.22 µM (active) | IC50 [9]: 66 µM (active) | EC50 [10]: 100 µM (inactive) | AC50 [11]: 3.26 µM (active)

COc1ccc(N2CCN(CCCNC(=O)Cn3c(=O)c4cccn4c4ccccc43)CC2)cc1
IC50 [12]: > 32 µM (inactive) | EC50 [13]: > 32 µM (inactive) | IC50 [14]: 4.32 µM (active) | IC50 [15]: > 32 µM (inactive) | IC50 [16]: 15.3 µM (inactive) | EC50 [17]: > 32 µM (inactive) | EC50 [18]: > 32 µM (inactive)
